One may read the pIC50 as the IC50 on a negative log10 scale, so that one unit is a factor of ten.

Each structure is given as a SMILES string. pIC50: −log10 of the molar value.

In one experiment the target is T1, BTK (Homo sapiens, UniProt Q06187).
T1 construct: purchased Promega Corporation
Briefly: Inhibitory activity against BTK, ADP-Glo + BTK Kinase enzyme system kit (Promega). Type of experiment: biochemical. To be noted: BTK enzyme 1 ng/μl; ATP 10 µM; 15 min preincubation at room temperature; 1 hour at 30° C.; luminescence; duplicate. The procedure: (§1) Inhibitory activities against BTK and ITK were measured for the compounds prepared in the above Examples as follows.
The inhibitory activities against BTK were evaluated using ‘ADP-Glo™+BTK Kinase enzyme system’ kit (Promega Corporation). […] 5 μl of substrate and 5 μl of ATP prepared so as to have a final concentration of 10 µM were added to the plate on which reactions were completed, and then allowed to react at 30° C. for 1 hour. All wells of the plate were treated with 25 μl of ADP-Glo™ reagent and allowed to react at 30° C. for 40 minutes. After that, all wells were treated with 50 μl of kinase detection buffer, and then reacted at 30° C. for 30 minutes under light shielding conditions. For the plate on which all reactions were completed, luminescence was measured and the results were calculated. Evaluation was carried out in duplicate, and negative control and positive control were calculated depending on whether or not the enzyme was added without treatment of the compound. The IC50 was calculated based on the calculated values.
(In general: In ADP-Glo the light output rises with the ADP produced.)

The target in a further experiment is T2, ITK (Homo sapiens, UniProt Q08881).
T2 construct: purchased Promega Corporation
T2 sequence (Q08881 1-620): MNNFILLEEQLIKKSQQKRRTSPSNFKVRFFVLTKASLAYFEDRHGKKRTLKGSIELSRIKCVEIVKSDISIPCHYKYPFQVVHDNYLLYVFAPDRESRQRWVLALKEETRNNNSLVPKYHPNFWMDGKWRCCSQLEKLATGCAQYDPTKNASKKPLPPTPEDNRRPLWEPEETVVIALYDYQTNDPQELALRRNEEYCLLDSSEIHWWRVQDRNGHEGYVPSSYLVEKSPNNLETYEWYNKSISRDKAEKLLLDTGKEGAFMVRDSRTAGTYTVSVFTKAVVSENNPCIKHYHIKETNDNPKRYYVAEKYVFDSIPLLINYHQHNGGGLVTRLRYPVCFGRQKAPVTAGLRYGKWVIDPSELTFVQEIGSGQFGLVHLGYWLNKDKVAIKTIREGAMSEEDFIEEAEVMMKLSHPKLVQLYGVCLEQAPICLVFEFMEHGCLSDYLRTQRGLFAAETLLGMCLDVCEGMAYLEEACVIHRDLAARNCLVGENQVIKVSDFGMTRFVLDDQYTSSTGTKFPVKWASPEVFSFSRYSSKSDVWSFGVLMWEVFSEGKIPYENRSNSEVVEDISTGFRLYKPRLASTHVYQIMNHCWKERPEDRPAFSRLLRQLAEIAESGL
The experiment can be described thus: Inhibitory activity against ITK, ADP-Glo + ITK Kinase enzyme system kit (Promega). Type of experiment: biochemical. To be noted: ITK enzyme 0.4 ng/μl; 15 min preincubation at room temperature; 1 hour at 30° C.; luminescence; duplicate. Here is the method: as §1
The inhibitory activity against ITK was evaluated using ‘ADP-Glo™+ITK Kinase enzyme system’ kit (Promega Corporation). […] To the plate on which reactions were completed, 5 μl of substrate and 5 μl of ATP prepared so as to have a final concentration of […] were added and then allowed to react at 30° C. for 1 hour. All wells of the plate were treated with 25 μl of ADP-Glo™ reagent and then allowed to react at 30° C. for 40 minutes. After that, all wells were treated with 50 μl of kinase detection buffer, and then allowed to react at 30° C. for 30 minutes under light shielding conditions. For the plate on which all reactions were completed, luminescence was measured and the results were calculated. Evaluation was carried out in duplicate, and negative control and positive control were calculated depending on whether or not the enzyme was added without treatment of the compound. The IC50 was calculated based on the calculated values.

T1 sequence (Q06187 whole entry): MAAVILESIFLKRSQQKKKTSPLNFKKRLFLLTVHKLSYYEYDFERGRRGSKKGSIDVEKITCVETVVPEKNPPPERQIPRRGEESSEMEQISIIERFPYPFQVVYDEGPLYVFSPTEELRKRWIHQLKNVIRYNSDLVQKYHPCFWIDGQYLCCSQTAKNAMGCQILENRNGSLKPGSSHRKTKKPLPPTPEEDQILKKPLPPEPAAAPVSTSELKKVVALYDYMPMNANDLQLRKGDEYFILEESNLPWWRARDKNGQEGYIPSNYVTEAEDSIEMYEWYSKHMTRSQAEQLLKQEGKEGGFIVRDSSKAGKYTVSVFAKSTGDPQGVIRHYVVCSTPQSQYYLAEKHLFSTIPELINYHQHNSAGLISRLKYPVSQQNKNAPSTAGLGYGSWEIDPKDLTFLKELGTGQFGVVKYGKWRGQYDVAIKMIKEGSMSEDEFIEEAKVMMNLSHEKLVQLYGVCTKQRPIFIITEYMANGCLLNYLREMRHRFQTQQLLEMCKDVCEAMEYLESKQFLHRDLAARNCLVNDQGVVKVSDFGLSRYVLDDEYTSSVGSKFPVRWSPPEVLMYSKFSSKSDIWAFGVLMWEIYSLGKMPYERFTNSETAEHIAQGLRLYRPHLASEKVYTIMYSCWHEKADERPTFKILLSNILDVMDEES

Turning to `C=CC(=O)N1CCCC(Nc2nc(CN3CCOCC3)cc(Nc3ncc(C)s3)n2)C1` (stereo not shown) [Example 17, 1-(3-((4-((5-methylthiazol-2-yl)amino)-6-(morpholinomethyl)pyrimidin-2-yl)amino)piperidin-1-yl) prop-2-en-1-one], the pIC50 was 8.82 on BTK and 8.72 on ITK.
For `C=CC(=O)N1CCC(Nc2cc(CN3CCOCC3)cc(Nc3ncc(C)s3)n2)CC1` [Example 3, 1-(4-((6-((5-methylthiazol-2-yl)amino)-4-(morpholinomethyl)pyridin-2-yl)amino)piperidin-1-yl) prop-2-en-1-one], in that order: 7.99 and 8.04.
For `C=CC(=O)N1CCC[C@H](Nc2cc(CN3CCOCC3)cc(Nc3ncc(C)s3)n2)C1` [Example 5, (S)-1-(3-((6-((5-methylthiazol-2-yl)amino)-4-(morpholinomethyl)pyridin-2-yl)amino)piperidin-1-yl) prop-2-en-1-one], in that order: 6.82 and less than 6.70.
For `C=CC(=O)N1CCC[C@H](Nc2cc(OC3CCN(C)CC3)cc(Nc3ncc(C)s3)n2)C1` [Example 33, (S)-1-(3-((4-((1-methylpiperidin-4-yl)oxy)-6-((5-methylthiazol-2-yl)amino)pyridin-2-yl)amino)piperidin-1-yl) prop-2-en-1-one], in that order: 8.74 and 8.41.
As to `C=CC(=O)N1CCC[C@H](Nc2cc(C#N)cc(Nc3ncc(C)s3)n2)C1` [Example 38], the values for the pIC50 at BTK and at ITK were 8.80 and 8.59, respectively.
`C=CC(=O)N1CC[C@H](Nc2cc(CN3CCOCC3)cc(Nc3ncc(C)s3)n2)C1` [Example 7, (S)-1-(3-((6-((5-methylthiazol-2-yl)amino)-4-(morpholinomethyl)pyridin-2-yl)amino)pyrrolidin-1-yl) prop-2-en-1-one]: the negative-log IC50 (pIC50) at BTK was 8.44; on ITK it was 8.46.
For `CC#CC(=O)N1CCC2CCN(c3cc(CN4CCOCC4)cc(Nc4ncc(C)s4)n3)CC21` (stereo not shown) [Example 29, 1-(6-(6-((5-methylthiazol-2-yl)amino)-4-(morpholinomethyl)pyridin-2-yl)octahydro-1H-pyrrolo[2,3-c]pyridin-1-yl) but-2-yn-1-one], in that order: 7.73 and 7.30.
Taken in the same sequence, the figures for `C=CC(=O)N1CCC2CCN(c3cc(CN4CCOCC4)cc(Nc4ncc(C)s4)n3)CC21` (stereo not shown) [Example 28, 1-(6-(6-((5-methylthiazol-2-yl)amino)-4-(morpholinomethyl)pyridin-2-yl)octahydro-1H-pyrrolo[2,3-c]pyridin-1-yl) prop-2-en-1-one] were 8.06 and 7.50.
Taken in the same sequence, the figures for `C=CC(=O)N1CCCC(Nc2cc(CN3CCOCC3)cc(Nc3ncc(C)s3)n2)C1` (stereo not shown) [Example 1, 1-(3-((6-((5-methylthiazol-2-yl)amino)-4-(morpholinomethyl)pyridin-2-yl)amino)piperidin-1-yl) prop-2-en-1-one] were 8.33 and 8.39.
With `C=CC(=O)N1CCC[C@H](Nc2cc(CN3CCOCC3)cc(Nc3ccccn3)n2)C1` [Example 53, (S)-1-(3-(4-(morpholinomethyl)-6-(pyridin-2-ylamino)pyridin-2-ylamino)piperidin-1-yl) prop-2-en-1-one], the pIC50 on BTK was 8.11; at ITK, 7.37.
In the case of `CC#CC(=O)N1CCC(Nc2cc(CN3CCOCC3)cc(Nc3ncc(C)s3)n2)CC1` [Example 19, 1-(4-((6-((5-methylthiazol-2-yl)amino)-4-(morpholinomethyl)pyridin-2-yl)amino)piperidin-1-yl) but-2-yn-1-one], the pIC50 on BTK is 6.06.
In the case of `CC#CC(=O)N1CCC[C@H](Nc2nc(CN3CCOCC3)cc(Nc3ncc(C)s3)n2)C1` [Example 23, (S)-1-(3-((4-((5-methylthiazol-2-yl)amino)-6-(morpholinomethyl)pyrimidin-2-yl)amino)piperidin-1-yl) but-2-yn-1-one], the pIC50 at BTK was 7.44.

Values taken from US12227498B2, “Heterocyclic amine derivative and pharmaceutical composition comprising same” (Daewoong Pharmaceutical Co., Ltd., priority 2018, dated 2025).
